pIC50: −log10 of the molar value.
Columns and labels:
[1] = tested on: KB; experiment: Cytotoxicity against human KB cells assessed as reduction in cell viability by SRB assay; assay type: functional, cell-based
[2] = Cytotoxicity against human P388 cells assessed as reduction in cell viability by SRB assay; assay type: functional, cell-based
[3] = tested on: A549; experiment: Cytotoxicity against human A549 cells assessed as reduction in cell viability by SRB assay; assay type: functional, cell-based
[4] = Potency index, ratio of andrographolide IC50 to test compound IC50 for cytotoxicity against […] cells; assay type: functional
[5] = tested on: MCF7; experiment: Cytotoxicity against human MCF7 cells assessed as reduction in cell viability by SRB assay; assay type: functional, cell-based
[6] = Cytotoxicity against human K213 cells assessed as reduction in cell viability by SRB assay; assay type: functional, cell-based
[7] = tested on: HT-29; experiment: Cytotoxicity against human HT-29 cells assessed as reduction in cell viability by SRB assay; assay type: functional, cell-based
[8] = Cytotoxicity against human K055 cells assessed as reduction in cell viability by SRB assay; assay type: functional, cell-based
[9] = Cytotoxicity against rat ASK cells assessed as reduction in cell viability by SRB assay; assay type: functional, cell-based
[10] = tested on: MCF7; experiment: Potency index, ratio of andrographolide IC50 to test compound IC50 for cytotoxicity against human MCF7 cells; assay type: functional
[11] = tested on: KB; experiment: Potency index, ratio of andrographolide IC50 to test compound IC50 for cytotoxicity against human KB cells; assay type: functional
[12] = Potency index, ratio of andrographolide IC50 to test compound IC50 for cytotoxicity against human K213 cells; assay type: functional
[13] = Potency index, ratio of andrographolide IC50 to test compound IC50 for cytotoxicity against human K055 cells; assay type: functional

Compound | pIC50 [1] | pIC50 [2] | pIC50 [3] | Ratio IC50 [4] | pIC50 [5] | pIC50 [6] | pIC50 [7] | pIC50 [8] | pIC50 [9] | Ratio IC50 [10] | Ratio IC50 [11] | Ratio IC50 [12] | Ratio IC50 [13]
C=C1[C@@H](OC(C)=O)C[C@@H]2[C@](C)(CO[Si](C)(C)C(C)(C)C)[C@H](OC(C)=O)CC[C@@]2(C)[C@@H]1C[C@@H](Nc1ccccc1)C1=CCOC1=O | 5.24 | 5.36 | 5.35 | 9 | 5.32 | 5.24 | 5.39 | 5.35 | 5.30 | – | – | – | –
C=C1[C@@H](OC(C)=O)C[C@@H]2[C@](C)(CO[Si](C)(C)C(C)(C)C)[C@H](OC(C)=O)CC[C@@]2(C)[C@@H]1C[C@@H](Nc1ccccc1F)C1=CCOC1=O | 5.32 | 5.50 | 5.50 | – | 5.53 | 5.26 | 5.43 | 5.28 | 5.43 | 7 | – | – | –
C=C1[C@@H](OC(C)=O)C[C@@H]2[C@](C)(CO[Si](C)(C)C(C)(C)C)[C@H](OC(C)=O)CC[C@@]2(C)[C@@H]1C[C@@H](Nc1ccc(Br)cc1)C1=CCOC1=O | 5.28 | 5.38 | 5.38 | – | 5.41 | 5.26 | 5.34 | 5.27 | 5.32 | 7 | – | – | –
C=C1[C@@H](OC(C)=O)C[C@@H]2[C@](C)(CO[Si](C)(C)C(C)(C)C)[C@H](OC(C)=O)CC[C@@]2(C)[C@@H]1C/C=C1/C(=O)OC[C@H]1OC(C)=O | 5.30 | 6.37 | 5.33 | – | 5.34 | 5.32 | 5.31 | 5.35 | 5.39 | – | 8 | 8 | 8
C=C1[C@@H](OC(C)=O)C[C@@H]2[C@](C)(CO[Si](C)(C)C(C)(C)C)[C@H](OC(C)=O)CC[C@@]2(C)[C@@H]1C[C@@H](Nc1cccc(F)c1)C1=CCOC1=O | 5.34 | 5.55 | 5.39 | – | 5.42 | 5.28 | 5.34 | 5.27 | 5.43 | 7 | – | – | –

Source: ChEMBL document CHEMBL4673364, “Synthesis and cytotoxic activity of new 7-acetoxy-12-amino-14-deoxy andrographolide analogues” (Bioorg Med Chem Lett, 2021)
